Experimental data reported in the supplement of paper PMC10307832.

Experiments:
Test in all cases: relative viability (nuclei count vs DMSO), 5 days (fraction); higher = more cells survive
[1] = compound: Cn1cc(-c2cnc3ccc4ccc(CS(=O)(=O)NCc5ccccn5)cc4c(=O)c3c2)cn1 [MK-8033] + CC(=O)Nc1cccc(-n2c(=O)n(C3CC3)c(=O)c3c(Nc4ccc(I)cc4F)n(C)c(=O)c(C)c32)c1 [Trametinib] (partner 0.02 µM)
Summary of the method: (§1)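 Relative viability equals treated-well nuclei counts divided by vehicle-well nuclei counts. Counts came from 4× images of lung cancer cell lines grown in 1536-well plates for 5 days after pin-tool dosing on the day after seeding. Dosing used one drug alone or a fixed anchor-drug dose plus five library-drug doses (not always all listed) in √10 steps, and values are medians of duplicate plates.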

[2] = compound: Cn1cc(-c2cnc3ccc4ccc(CS(=O)(=O)NCc5ccccn5)cc4c(=O)c3c2)cn1 [MK-8033] + C[C@]1(O)C[C@@H](c2nc(-c3ccc4ccc(-c5ccccc5)nc4c3)c3c(N)nccn32)C1 [Linsitinib] (partner 1 µM)
Summary of the method: as §1

[3] = compound: CC[C@@H](C)CNCC(=O)N1CCC2=C([C@@H]1COC3=CC=CC(=C3)C)C=CS2 [RU-SKI 43] + CC1(C)CCC(c2ccc(Cl)cc2)=C(CN2CCN(c3ccc(C(=O)NS(=O)(=O)c4ccc(N[C@H](CCN5CCOCC5)CSc5ccccc5)c(S(=O)(=O)C(F)(F)F)c4)cc3)CC2)C1 [Navitoclax] (partner 0.5 µM)
Summary of the method: as §1

[4] = compound: CCc1c2c(nc3ccc(OC(=O)N4CCC(N5CCCCC5)CC4)cc13)-c1cc3c(c(=O)n1C2)COC(=O)[C@]3(O)CC [Irinotecan] + COc1cccc2cc(-c3nc([C@H]4CC[C@H](C(=O)O)CC4)n4ncnc(N)c34)[nH]c12 [OSI-027] (partner 0.5 µM)
Summary of the method: as §1

Cell Line	relative viability ([1]; first compound 0.02 µM)	relative viability ([1]; first compound 0.06325 µM)	relative viability ([1]; first compound 0.2 µM)	relative viability ([1]; first compound 0.6325 µM)	relative viability ([1]; first compound 2 µM)	relative viability ([2]; first compound 0.02 µM)	relative viability ([2]; first compound 0.2 µM)	relative viability ([2]; first compound 0.6325 µM)	relative viability ([2]; first compound 2 µM)	relative viability ([3]; first compound 0.1 µM)	relative viability ([3]; first compound 0.3162 µM)	relative viability ([3]; first compound 1 µM)	relative viability ([3]; first compound 10 µM)	relative viability ([4]; first compound 0.6325 µM)	relative viability ([4]; first compound 2 µM)	relative viability ([4]; first compound 6.325 µM)	relative viability ([4]; first compound 20 µM)	relative viability ([2]; first compound 0.06325 µM)	relative viability ([3]; first compound 3.162 µM)
EPLC-272H	0.247	0.263	0.29	0.275	0.301	1.17	1.01	1.07	1.17	1.17	1.12	1.03	1.13	0.224	0.268	0.165	0.249		
EKVX	0.334	0.297	0.295	0.367	0.344	1	0.856	1.05	0.994	0.989	0.893	0.96	0.67	0.664	0.625	0.49	0.162	1.01	0.982
HCC-15	0.387	0.369	0.322	0.351	0.368	0.763	0.83	0.911	0.801	0.769	0.81	0.715	0.735		0.441	0.198	0.14	0.851	0.757
LXF-289	0.702	0.616	0.685	0.711	0.659	0.926	1.01	0.96	0.976	0.982	0.973	1.03	0.91	0.472	0.797	0.421	0.24	0.944	0.992
LK-2	0.668	0.687	0.688	0.849	0.766	0.642	0.527	0.317	0.508	0.962	0.883	0.93	0.914	0.162	0.2	0.237	0.253	0.509	1.07
NCI-H2126	0.542	0.554	0.525	0.585	0.569	0.727	0.673	0.686	0.715	0.776	0.863	0.875	0.862		0.601	0.457	0.427	0.659	0.875
NCI-H596	0.683	0.916	0.733	0.837	0.877	0.978	1.04	1.1	1.09	0.896	0.833	0.994	1.01	0.579	0.927	0.728	0.581	1.1	1.06
NCI-H3122	0.262	0.247	0.21	0.238	0.3	1.01	0.993	1.04	1.02	1.03	1	0.995	0.98	1.04	0.649	0.22	0.0566	1.04	0.97
NCI-H727	0.371	0.358	0.339	0.393	0.429	0.284	0.253	0.3	0.266	0.305	0.355	0.397	0.358	0.338	0.499	0.391	0.428	0.275	0.35
NCI-H1355	0.415	0.363	0.393	0.447	0.419	0.735	0.762	0.795	0.828	0.936	0.996	0.921	0.997		0.375	0.269	0.25	0.7	0.979
NCI-H1792	0.536	0.33	0.352	0.437	0.36	0.468	0.527	0.454	0.523	0.65	0.908	0.968	0.685	0.7	0.617	0.456	0.231	0.528	0.612
